# Values quoted from earlier work in US10751019B2, “Determining a brain condition using early time frame PET image analysis” (ADM DIAGNOSTICS, LLC, priority 2015, dated 2020).
# Settings: PET tracer in brain, time after tracer injection; varies with tracer, region of accumulation and target load
row,Structure (SMILES),time to reach equilibrium
1,[11CH3]Nc1ccc(-c2nc3ccc(O)cc3s2)cc1 [11C-PiB],about 45 minutes
2,CNc1ccc(/C=C/c2ccc(OCCOCCOCCF)nc2)cc1 [florbetapir],40 to 45 min
3,CNc1ccc(-c2nc3ccc(O)cc3s2)cc1F [flutemetamol],about 80 minutes
